# Patent US20240316045A1, “CYCLOPROPYLAMIDE COMPOUNDS AGAINST PARASITES IN FISH” (Intervet Inc., priority 2021, published 2024)
# Where two headings read alike, the source gives them in different places.
# How the values were obtained:
# [1] = tested on: Mobile stages of sea lice (pre-adults, adults of Lepeophtheirus salmonis); experiment: Adult sea lice contact assay; settings: read-out: EC50 (sea lice inhibition, dead+damaged)
# Description: Mobile stages of sea lice (i.e., pre-adults, adults of Lepeophtheirus salmonis) were exposed to seawater spiked with declining concentrations of a test compound (dissolved in a PEG sea-water mixture). Sea lice inhibition (% of dead+damaged sea lice) was assessed after approximately 1 and 24 hours of continuous exposure in comparison to a negative (solvent) control group.
# Lepeophtheirus salmonis = experiment: Salmon in vivo efficacy trial against sea lice, gavage administration; settings: in Salmo salar
# Description: Salmon (Salmo salar) were treated once orally by gavage at a dose of 5 mg/kg bodyweight per fish (Day 0). As formulation DMSO 5%/fish oil 95% was used. Salmon of the negative control group received only the excipients of the formulation.
# The fish were infested with Lepeophtheirus salmonis copepodids twice before treatment (i.e., around day −28 and day −3) and once after treatment (i.e., day 17). […]
# Efficacy is expressed as a % reduction of sea lice in treated groups versus a control group, using the Abbott's formula.
# [2] = tested on: Copepodids (juvenile sea lice stage of Lepeophtheirus salmonis); experiment: Juvenile sea lice contact assay; settings: read-out: Sea lice inhibition (% of dead+damaged copepodids); for inhibition at 0.1 µM: test concentration 100 nM
# Description: Copepodids (juvenile sea lice stage of Lepeophtheirus salmonis) were exposed to seawater spiked with declining concentrations of a test compound (dissolved in a DMSO sea-water mixture). Sea lice inhibition (% of dead+damaged copepodids) was assessed after approximately 24 hours of continuous exposure. The vitality of used parasites was confirmed in a negative (solvent) control group.
# [3] = pre-adult/adult L. salmonis, assessed after approx. 1 and 24 hours, time of EC50 not stated
# [4] = 168 h, read-out: therapeutic efficacy against (pre-)adult sea lice (% reduction vs control, Abbott), single oral gavage 5 mg/kg, count at day 7, day -28 infestation
# [5] = 672 h, read-out: therapeutic efficacy against juvenile sea lice (% reduction vs control, Abbott), single oral gavage 5 mg/kg, count around day 28, day -3 infestation
# [6] = test concentration 10 nM, approx. 24 hours continuous exposure
# [7] = approx. 24 hours continuous exposure
smiles,measurement,setting,value
O=C(Nc1ncc(F)cc1F)c1cc(NC(=O)[C@H]2[C@H](c3cc(Cl)cc(Cl)c3)C2(Cl)Cl)cc(F)c1Cl [Compound 1378],EC50,[1]; [3],1 to 25 nM
same,inhibition in vivo at 5 mg/kg,Lepeophtheirus salmonis; [4],100%
same,inhibition in vivo at 5 mg/kg,Lepeophtheirus salmonis; [5],100%
same,inhibition at 0.01 µM,[2]; [6],100%
Cc1ccccc1NC(=O)c1cc(NC(=O)[C@H]2[C@H](c3cc(Cl)cc(Cl)c3)C2(Cl)Cl)ccc1Cl [Compound 1100],EC50,[1]; [3],1 to 10 nM
same,inhibition in vivo at 5 mg/kg,Lepeophtheirus salmonis; [4],100%
same,inhibition in vivo at 5 mg/kg,Lepeophtheirus salmonis; [5],100%
same,inhibition at 0.01 µM,[2]; [6],100%
O=C(Nc1cncnc1)c1cc(NC(=O)[C@H]2[C@H](c3cc(Cl)cc(Cl)c3)C2(Cl)Cl)ccc1Cl [Compound 1371],EC50,[1]; [3],1 to 10 nM
same,inhibition in vivo at 5 mg/kg,Lepeophtheirus salmonis; [4],100%
same,inhibition in vivo at 5 mg/kg,Lepeophtheirus salmonis; [5],100%
same,inhibition at 0.01 µM,[2]; [6],100%
Cc1c(F)cc(NC(=O)[C@H]2[C@H](c3cc(Cl)cc(Cl)c3)C2(Cl)Cl)cc1C(=O)Nc1ncc(F)cc1F [Compound 1368],EC50,[1]; [3],1 to 10 nM
same,inhibition in vivo at 5 mg/kg,Lepeophtheirus salmonis; [4],80%
same,inhibition in vivo at 5 mg/kg,Lepeophtheirus salmonis; [5],100%
same,inhibition at 0.01 µM,[2]; [6],100%
O=C(Nc1ccncn1)c1cc(NC(=O)[C@H]2[C@H](c3cc(Cl)cc(Cl)c3)C2(Cl)Cl)ccc1Cl [Compound 1039],EC50,[1]; [3],1 to 25 nM
same,inhibition in vivo at 5 mg/kg,Lepeophtheirus salmonis; [4],80%
same,inhibition in vivo at 5 mg/kg,Lepeophtheirus salmonis; [5],80%
same,inhibition at 0.1 µM,[2]; [7],100%
O=C(Nc1ncc(F)cc1F)c1cc(NC(=O)C2C(c3cc(Cl)cc(C(F)(F)F)c3)C2(Cl)Cl)ccc1Cl (stereo not shown) [Compound 1389],EC50,[1]; [3],≤ 1 nM
same,inhibition at 0.01 µM,[2]; [6],100%
O=C(Nc1ccccc1)c1cc(NC(=O)[C@H]2[C@H](c3cc(Cl)cc(Cl)c3)C2(Cl)Cl)ccc1Cl [Compound 1099],EC50,[1]; [3],1 to 10 nM
same,inhibition in vivo at 5 mg/kg,Lepeophtheirus salmonis; [4],80%
same,inhibition in vivo at 5 mg/kg,Lepeophtheirus salmonis; [5],100%
same,inhibition at 0.01 µM,[2]; [6],100%
O=C(Nc1ncc(F)cc1F)c1cc(NC(=O)C2C(c3cc(C(F)(F)F)cc(C(F)(F)F)c3)C2(Cl)Cl)ccc1Cl (stereo not shown) [Compound 1385],EC50,[1]; [3],1 to 10 nM
same,inhibition at 0.01 µM,[2]; [6],100%
O=C(Nc1c(F)cccc1F)c1cc(NC(=O)[C@H]2[C@H](c3cc(Cl)cc(Cl)c3)C2(Cl)Cl)ccc1Cl [Compound 1370],EC50,[1]; [3],1 to 10 nM
same,inhibition in vivo at 5 mg/kg,Lepeophtheirus salmonis; [4],100%
same,inhibition in vivo at 5 mg/kg,Lepeophtheirus salmonis; [5],100%
same,inhibition at 0.01 µM,[2]; [6],100%
Cc1ccc(NC(=O)[C@H]2[C@H](c3cc(Cl)cc(Cl)c3)C2(Cl)Cl)cc1C(=O)Nc1ccc(F)cc1 [Compound 1101],EC50,[1]; [3],1 to 10 nM
same,inhibition at 0.1 µM,[2]; [7],100%
O=C(Nc1ncc(F)cc1F)c1cc(NC(=O)[C@H]2[C@H](c3cc(Cl)cc(Cl)c3)C2(Cl)Cl)ccc1F [Compound 1376],EC50,[1]; [3],≤ 1 nM
same,inhibition in vivo at 5 mg/kg,Lepeophtheirus salmonis; [4],100%
same,inhibition in vivo at 5 mg/kg,Lepeophtheirus salmonis; [5],100%
same,inhibition at 10 pM,"[2]; test concentration 0.01 nM, approx. 24 hours continuous exposure",100%
same,inhibition at 0.0001 µM,"[2]; test concentration 0.1 nM, approx. 24 hours continuous exposure",100%
O=C(Nc1ncc(F)cc1F)c1c(F)ccc(NC(=O)[C@H]2[C@H](c3cc(Cl)cc(Cl)c3)C2(Cl)Cl)c1F [Compound 1394],EC50,[1]; [3],1 to 10 nM
same,inhibition in vivo at 5 mg/kg,Lepeophtheirus salmonis; [4],100%
same,inhibition in vivo at 5 mg/kg,Lepeophtheirus salmonis; [5],100%
same,inhibition at 0.1 µM,[2]; [7],100%
O=C(Nc1ncc(F)cc1F)c1cc(NC(=O)[C@H]2[C@H](c3cc(F)c(F)c(F)c3)C2(Cl)Cl)ccc1F [Compound 1393],EC50,[1]; [3],≤ 1 nM
same,inhibition in vivo at 5 mg/kg,Lepeophtheirus salmonis; [4],100%
same,inhibition in vivo at 5 mg/kg,Lepeophtheirus salmonis; [5],80%
same,inhibition at 0.01 µM,[2]; [6],100%
O=C(Nc1c(F)cccc1F)c1cc(NC(=O)C2C(c3cc(Cl)cc(Cl)c3)C2(Cl)Cl)ccc1Cl (stereo not shown) [Compound 1007],EC50,[1]; [3],1 to 25 nM
same,inhibition at 0.01 µM,[2]; [6],80%
O=C(Nc1ncc(F)cc1F)c1cccc(NC(=O)[C@H]2[C@H](c3cc(Cl)cc(Cl)c3)C2(Cl)Cl)c1F [Compound 1379],EC50,[1]; [3],1 to 25 nM
same,inhibition at 0.1 µM,[2]; [7],100%
O=C(Nc1ccc(F)cc1)c1cc(NC(=O)[C@H]2[C@H](c3cc(Cl)cc(Cl)c3)C2(Cl)Cl)ccc1F [Compound 1090],EC50,[1],1 to 10 nM
same,inhibition at 0.001 µM,[2]; 24 h,100%
O=C(Nc1ncc(F)cc1F)c1cc(NC(=O)C2C(c3cc(C(F)(F)F)cc(C(F)(F)F)c3)C2(Cl)Cl)cc(F)c1F (stereo not shown) [Compound 1388],EC50,[1]; [3],1 to 10 nM
same,inhibition at 0.1 µM,[2]; [7],100%
O=C(Nc1ncc(F)cc1F)c1cc(NC(=O)[C@H]2[C@H](c3cc(F)c(F)c(F)c3)C2(Cl)Cl)ccc1Cl [Compound 1392],EC50,[1],≤ 1 nM
same,inhibition in vivo at 5 mg/kg,"Lepeophtheirus salmonis; po, 168 h, read-out: therapeutic efficacy against (pre-)adult sea lice (% reduction vs control, Abbott)",100%
same,inhibition in vivo at 5 mg/kg,"Lepeophtheirus salmonis; po, 672 h, read-out: therapeutic efficacy against juvenile sea lice (% reduction vs control, Abbott)",80%
same,inhibition at 0.01 µM,[2]; 24 h,100%
O=C(Nc1ncc(F)cc1F)c1cc(NC(=O)C2C(c3cc(Cl)cc(Cl)c3)C2(Cl)Cl)cc(F)c1F (stereo not shown) [Compound 1391],EC50,[1]; [3],1 to 10 nM
same,inhibition at 0.01 µM,[2]; [6],80%
